According to US20140199261A1, “METHOD OF REDUCING MULTI-DRUG RESISTANCE USING INOSITOL TRIPYROPHOSPHATE” (Universite de Strasbourg, priority 2009, published 2014):

Assays:
[1] = tested on: Human Panc-1 pancreatic tumor xenograft; test: Median survival, human Panc-1 pancreatic tumor xenograft in nude mouse; type: in vivo
Description: In the ITPP treatment group, mice with tumor xenograft were treated with ITPP (2 mg/Kg) weekly during the period of day 14 to day 49. In the gemcitabine treatment group, mice with tumor xenograft were treated with gemcitabine (100 mg/Kg) on days 16, 18 and 20. Animals in the control group were not treated.
In the combination treatment group, mice with tumor xenograft were treated with ITPP (2 mg/Kg) in combination with gemcitabine (25 mg/Kg or 50 mg/Kg) weekly during the period of day 14 to day 49. In the
gemcitabine treatment group, mice with tumor xenograft were treated with gemcitabine (100 mg/Kg) on days 16, 18 and 20. Animals in the control group were not treated.
In the xenograft tumor model, mice in the combination treatment group received administration of ITPP (2 mg/Kg) in combination with gemcitabine (25 mg/Kg or 50 mg/Kg) weekly during the period of day 14 to day 49. Mice in the gemcitabine treatment group received administration of gemcitabine (100 mg/Kg) on days 16, 18 and 20. Mice in the control group were not treated.
(§1) Median survival time of animals with ductal pancreatic adenocarcinoma treated with OXY111A and/or gemcitabine was followed and summarized in Table 1 below: […]

[2] = tested on: Syngeneic rat tumor in rat (ductal pancreatic adenocarcinoma); test: Median survival, syngeneic rat pancreatic tumor in rat; type: in vivo
Description: (§2) In the ITPP treatment group, rats with pancreatic tumor were treated with ITPP (1.5 mg/Kg) weekly during the period of day 14 to day 49. In the gemcitabine treatment group, rats with pancreatic tumor were treated with gemcitabine (100 mg/Kg) on days 16, 18 and 20. Animals in the control group were not treated.
as §2, with “the combination” for “the ITPP”, “(1.5 mg/Kg) in combination with gemcitabine (25 mg/Kg or 50” for “(1.5”
In the rat pancreatic tumor model, rats in the combination treatment group received ITPP (1.5 mg/Kg) in combination with gemcitabine (25 mg/Kg or 50 mg/Kg) weekly during the period of day 14 to day 49. Rats in the gemcitabine treatment group received administration of gemcitabine (100 mg/Kg) alone on days 16, 18 and 20. Rats in the control group were not treated.
as §1

[3] = tested on: Human MiaPaca in Nude Mouse; test: Median survival, human MiaPaca tumor in nude mouse; type: in vivo
Text: as §1

[4] = tested on: Rat tumor in Nude Mouse (ductal pancreatic adenocarcinoma); test: Median survival, rat pancreatic tumor in nude mouse; type: in vivo
Text: as §1

[5] = tested on: B16F10LucGFP murine melanoma cells; test: Experimental metastasis assay (intravenous B16F10LucGFP melanoma cells), lung markers; type: in vivo, mouse
Description: After intravenous injection of B16F10LucGFP murine melanoma cells (10^5 cells in 0.1 ml saline) in the tail vein, mice (eight-week-old female C57BL/6 from Janvier) were treated by 1.5 g/kg ITPP IP injected every 5 days (10 mice per treatment group). Treatment was initiated at day 5 after tumor cells inoculation. 19 or 27 days later, mice were euthanized and lungs collected separately. Macroscopic lung foci were counted and luciferase was determined by chemoluminescence assay (Promega) in order to quantify the amount of melanoma cells in tissues. All animal study procedures and the use of animals were approved by the Comite d'Ethique pour l'expérimentation animale, Campus CNRS d'Orléans, France.
Lungs were homogenized in lysis buffer (Active motif). After centrifugations, clear supernatant was collected. Total protein amount was determined by BCA protein assay kit (Thermo Scientific). HIF-1α, VEGF, Tie-2 and HO-1 in lung lysates were quantified using colorimetric sandwich ELISA according to the manufacturer's instructions. The HIF-1α, VEGF and Tie-2 ELISA kits were from R&D. The HO-1 ELISA kit was from Takara.
The Taqman polymerase chain reaction primer sequences for LOX were 5′-[…]-3′ (SEQ ID NO: 1) and 5′-[…]-3′ (SEQ ID NO: 2). For β-actin (internal control), the primer sequences were 5′-[…] ATCC-3′ (SEQ ID NO: 3) and 5′-[…]-3′ (SEQ ID NO: 4). The amplified cDNAs bands were quantified with ImageQuant software (Becton and Dickinson). LOX mRNA levels were normalized relatively to β-actin mRNA.
To validate ITPP as an anti-metastatic agent, the “artificial” model of lung metastasis was used by injecting intravenously melanoma cells in mice. The B16F10LucGFP cell line was used, which is the melanoma B16F10 line transduced by GFP and luciferase reporter genes allowing to track and quantify the melanoma cells by analysis of luciferase activity in tissues.

[6] = tested on: subcutaneous melanoma tumor; test: Oxylite pO2 measurement in subcutaneous melanoma tumor; type: in vivo, mouse
Description: (§3) B16F10LucGFP cells were grown as subcutaneous tumors, after injecting 100 μl of a plug constituted by 10^5 cells in 25% Matrigel™ (50% in OptiMEM). Matrigel was from BD Biosciences and OptiMEM from Invitrogen. Mice were euthanized and tumors and lungs excised 25 days after inoculation. […] Treatment was initiated 7, 9 or 11 days post melanoma cell inoculation.
The oxylite 2000E PO2 system (Oxford Optronics) measures pO2 by determining the O2-dependant fluorescence lifetime of ruthenium chloride which is immobilized at the tip of 230-μm diameter fiber-optic probe. The lifetime of the fluorescent pulse is inversely proportional to the oxygen tension in the tip. The mouse was anesthetized with intraperitoneal injection of xylazine/ketamin before the oxylite probe tip was installed inside the tumor and oxygen pressure recorded as described.
To confirm that ITPP-RBCs counteract hypoxia in vivo, a comparison of the values of the oxygen tension inside the melanoma tumors implanted subcutaneously above the left leg, in ITPP-treated and untreated mice was performed. Oxygen pressure (pO2) was computed by determining the O2-dependent fluorescence lifetime of ruthenium chloride on the tip of a fibre-optic probe. The lifetime of the fluorescent pulse is inversely proportional to the oxygen tension in the tip of the probe. While the tumors in non-treated animals, were strongly hypoxic with an oxygen pressure value below 2 mmHg (FIG. 1), in tumors of ITPP-treated mice pO2 reached the range of 40 mmHg (FIG. 1A). This pO2 increase occurred as soon as 30 minutes after intra-peritoneal injection of ITPP (FIG. 1B, C) and was maintained at a high level, up to 40 mmHg, as shown 24 hours after injection (FIG. 1A) for at least 48 hours.

B16 tumor = test: Immune cell infiltration into B16 tumor; type: in vivo
Description: OXY111A was injected intraperitoneally on days 7, 8, 14, 15, 21, 22, 29 and 30. Analysis of the B16 tumor was performed on day 31.
(a) to (c) untreated B16 tumor; (d) to (f) B16 tumor treated with ITPP. Green arrows indicate the infiltrating NK cells; red arrows indicate the vessel walls.
B16 tumor cells were labeled with B16F10 DAPI; NK cells were labeled by anti-CD49bFITCl; and vessel endothelial cells were labeled by antiCD31TRITC. (a) untreated B 16 tumor; (b) and (c) B 16 tumor treated with ITPP.

[7] = tested on: B16F10LucGFP subcutaneous tumors; test: Subcutaneous melanoma model (lung metastases, vessel normalization, drug efflux pump); type: in vivo, mouse
Description: as §3
Tumor tissues were embedded in Tissue-Tek (Sakura), tissue freezing medium and snap frozen in liquid nitrogen. Cryosections were fixed and stained using a rat monoclonal IgG2a antibodies against mouse CD31 (PECAM-I, platelet/endothelial cell adhesion molecule) from eBiosciences, rabbit IgG anti-SMA (smooth muscle actin) antibody (AbCAM), or mouse IgG2a anti-P-Glycoprotein (C219) (Calbiochem), diluted 1:200 in FCS 5% in PBS. Goat IgG-FITC-labeled anti-rat immunoglobulin, goat IgG-FITC-labelled anti-rabbit immunoglobulin or goat IgG-FITC-labelled anti-mouse immunoglobulin (diluted 1:200 in PBS) was used as secondary antibodies respectively. To detect cell nuclei, sections were incubated with bis-Benzimide H 33258 (Sigma-Aldrich) 1:1000 in PBS. Specimens were mounted in Vectashield (Vector) and fluorescent microscopy detection was performed on a Zeiss 200M inverted fluorescent microscope. Tumor necrosis was analysed after Hematoxylin eosine staining of tumor sections.
MRI assays were performed with a 9.4 T horizontal magnet for small animals (94/21 USR Bruker Biospec), equipped with a 950 mT/m gradient set. Mice were placed in a linear homogeneous coil (inner diameter: 35 mm). Animals were maintained under gaseous (50% N2O: 0.7 l/min—50% O2: 0.7l/min—Isoflurane 1.5%) anesthesia, temperature kept constant at 36° C. and breathing rate was monitored during the acquisitions using air balloon placed on the mouse chest to adjust the anesthetic output. Measurement of tumor vascularization was performed by MR angiography using the Fast Low Angle Shot (FLASH) sequence both in the axial and coronal planes. The FLASH pulse sequence was adapted to the study of the evolution of the angiogenesis of the tumor. This technique allows the 3D structure of the vascular tree of the tumor on the same animal to be followed overtime.
Structural changes of microcirculation in tumors were assessed by MRA (Magnetic Resonance Angiography) adaptation of Magnetic Resonance Imaging (MRI) to follow the 3D structure of the vascular tree of the tumor.

endothelial cells = test: Endothelial cell sensitivity to chemotherapeutic drugs; type: cell-based, mouse; settings: drug by itself, FIG. 4C
Description: Cell viability was evaluated by Alamar blue test (Biosource) as described by the manufacturer.

Nc1ccn([C@@H]2O[C@H](CO)[C@@H](O)C2(F)F)c(=O)n1 [Gemcitabine, gemcitabine, reference compound]
Median survival time ([1]; Gemcitabine alone, 100 mg/kg): 141 days
Median survival time ([2]; Gemcitabine alone, 100 mg/kg): 58 days
Median survival time ([3]; Gemcitabine alone, 100 mg/kg): 140 days
Median survival time ([4]; Gemcitabine alone, 100 mg/kg): 89 days

O=P1([O-])OC2C3OP(=O)([O-])OP(=O)([O-])OC3C3OP(=O)([O-])OP(=O)([O-])OC3C2OP(=O)([O-])O1.[Na+].[Na+].[Na+].[Na+].[Na+].[Na+] (stereo not drawn) [ITPP, hexasodium myo-inositol trispyrophosphate]
Median survival time ([1]; OXY111A alone, 2 mg/kg): 155 days
Tie-2 expression in lungs ([5]; ELISA on lung lysates): re-induced
VEGF level in lungs ([5]; ELISA on lung lysates): decreased to control levels
HIF-1α levels in lungs ([5]; ELISA on lung lysates, vs untreated melanoma bearing mice): decreased dramatically
HO-1 expression in lungs ([5]; ELISA, compared to non-treated mice): significantly reduced
Metastatic nodules in lung ([5]; ITPP treatment started from day 5, until day 27): very significantly reduced
Lysyl-oxidase (LOX) mRNA ([5]; semi-quantitative PCR): beneficial effect
Median survival time ([2]; OXY111A alone, 1.5 mg/kg): 102 days
pO2 level maintained in tumor ([6]; 24 hours after injection): up to 40 mmHg
Duration of high tumor pO2 ([6]; after injection): at least 48 hours
Time to pO2 increase in tumor ([6]; after intra-peritoneal injection of ITPP): 30 minutes
pO2 in muscle of non tumoral leg ([6]; parallel measurement in same animal): no change or any effect on pO2 was detected
Oxygen pressure (pO2) in tumor ([6]; tumors of ITPP-treated mice, FIG. 1A): ~40 mmHg
Infiltration of CD49b NK cells into tumor (B16 tumor; in vivo): significantly enhanced
Presence of CD31 EC cells in tumor (B16 tumor; in vivo): significantly enhanced
Infiltration of CD68 (M2 type) macrophages into tumor (B16 tumor; intraperitoneal injections on days 7, 8, 14, 15, 21, 22, 29 and 30): significantly enhanced
Median survival time ([3]; OXY111A alone, 2 mg/kg): 155 days
Tumor vasculature (MRA) ([7]; ITPP on day 9 and 14, repeated on days 18 and 19): less dense and remarkably normalized
Tumor size ([7]; ITPP on days 9, 14, 18, 19): remarkable reduction of the tumor size
P-glycoprotein drug efflux pump in tumor ([7]; implanted primary tumors, immunostaining): down-regulates
Lung metastases ([7]; initiation of ITPP on day 9 or 11): less effective
Lung metastases ([7]; initiation on day 9 or 11, chronic administrations): enhancement of pulmonary metastases
Lung metastases ([7]; short-term treatment (3 ITPP injections, 5 days intervals) started on day 7): reduced significantly the lung metastases
Median survival time ([4]; OXY111A alone, 2 mg/kg): 107 days

CC(=O)O[C@H]1C(=O)[C@@]2(C)[C@H]([C@H](OC(=O)c3ccccc3)[C@]3(O)C[C@H](OC(=O)[C@H](O)[C@@H](NC(=O)c4ccccc4)c4ccccc4)C(C)=C1C3(C)C)[C@]1(OC(C)=O)CO[C@@H]1C[C@@H]2O [Paclitaxel, paclitaxel]
Growth of endothelial cells (endothelial cells): inhibited the growth of the endothelial cells

N.N.[Cl][Pt][Cl] [cisplatin, cis-dichlorodiamine platinum]
Growth of endothelial cells (endothelial cells): inhibited the growth of the endothelial cells
